Measurements from US9549917B2, “Heterocyclic-substituted benzofuran derivatives and methods of use thereof for the treatment of viral diseases” (priority 2011, dated 2017).

What was measured:
HCV replicon genotype 1a = experiment: HCV replicon assay, genotype 1a (cell ELISA for NS3/4A); type: cell-based; settings: Hepatitis C virus, 96 h, read-out: 1a IC50 (nM)
Procedure: (§1) Measurement of inhibition by compounds was performed using the HCV replicon system. Several different replicons encoding different HCV genotypes or mutations were used. In addition, potency measurements were made using different formats of the replicon assay, including different ways of measurements and different plating formats. See Jan M. Vrolijk et al., A replicons-based bioassay for the measurement of interferons in patients with chronic hepatitis C, 110 J. V[…] 201 (2003); Steven S. Carroll et al., Inhibition of Hepatitis C Virus RNA Replication by 2′-Modified Nucleoside Analogs, 278(14) J. BIOLOGICAL CHEMISTRY 11979 (2003). However, the underlying principles are common to all of these determinations, and are outlined below.
(§2) Stable neomycin phosphotransferase encoding replicons-harboring cell lines were used, so all cell lines were maintained under G418 selection prior to the assay. Potency was determined using a cell ELISA assay with an antibody to the replicons encoded NS3/4a protease. See Caterina Trozzi et al., In Vitro Selection and Characterization of Hepatitis C Virus Serine Protease Variants Resistant to an Active-Site Peptide Inhibitor, 77(6) J. Virol. 3669 (2003). To initiate an assay, replicon cells were plated in the presence of a dilution series of test compound in the absence of G418. Typically, the assays were performed in a 96-well plate formate for manual operation, or a 384-well plate format for automated assay. Replicon cells and compound were incubated for 96 hours. At the end of the assay, cells were washed free of media and compound, and the cells were then lysed. RNA was quantified indirectly through detection of replicon-encoded NS3/4A protein levels, through an ELISA-based assay with an antibody specific for NS3/4A. IC50 determinations were calculated as a percentage of a DMSO control by fitting the data to a four-parameter fit function and the data obtained is provided in the table below.
(§3) Data for selected compounds of the present invention was obtained for genotypes 1a and 1b using this method and is provided in the table below: […]

HCV replicon genotype 1b = experiment: HCV replicon assay, genotype 1b (cell ELISA for NS3/4A); type: cell-based; settings: Hepatitis C virus, 96 h, read-out: 1b IC50 (nM)
Procedure: as §1, §2, §3

CNC(=O)c1c(-c2ccc(F)cc2)oc2cc(N(C)S(C)(=O)=O)c(-c3cnc(OC)c(-c4nc5c(F)cccc5o4)c3)cc12 [Compound 1, 5-(5-(4-fluorobenzo[d]oxazol-2-yl)-6-methoxypyridin-3-yl)-2-(4-fluorophenyl)-N-methyl-6-(N-methylmethylsulfonamido)benzofuran-3-carboxamide]
IC50 (HCV replicon genotype 1a): 0.9 nM
IC50 (HCV replicon genotype 1b): 0.6 nM

CNC(=O)c1c(-c2ccc(F)cc2)oc2cc(N(C)S(C)(=O)=O)c(-c3cncc(-c4nc5c(F)cccc5o4)c3)cc12 [Compound 2]
IC50 (HCV replicon genotype 1a): 0.3 nM
IC50 (HCV replicon genotype 1b): 0.8 nM

CNC(=O)c1c(-c2ccc(F)cc2)oc2cc(N(C)S(C)(=O)=O)c(-c3ccnc(-c4nc5c(F)cccc5o4)c3)cc12 [Compound 9]
IC50 (HCV replicon genotype 1a): 0.6 nM
IC50 (HCV replicon genotype 1b): 1.3 nM

CNC(=O)c1c(-c2ccc(F)cc2)oc2cc(N(C)S(C)(=O)=O)c(-c3cc(-c4nc5c(F)cccc5o4)c(F)cn3)cc12 [Compound 13]
IC50 (HCV replicon genotype 1a): 0.7 nM
IC50 (HCV replicon genotype 1b): 1.4 nM

CNC(=O)c1c(-c2ccc(F)cc2)oc2cc(N(C)S(C)(=O)=O)c(-c3cncc(-c4nc5ccccc5s4)c3)cc12 [Compound 62]
IC50 (HCV replicon genotype 1a): 2 nM
IC50 (HCV replicon genotype 1b): 1.2 nM

CNC(=O)c1c(-c2ccc(F)cc2)oc2cc(N(C)S(C)(=O)=O)c(-c3cncc(-c4nc5c(s4)CCCC5)c3)cc12 [Compound 82]
IC50 (HCV replicon genotype 1a): 0.8 nM
IC50 (HCV replicon genotype 1b): 1.1 nM

CNC(=O)c1c(-c2ccc(F)cc2)oc2cc(N(C)S(C)(=O)=O)c(-c3cnc(OC)c(-c4nc5c(o4)CCCC5(F)F)c3)cc12 [Compound 94]
IC50 (HCV replicon genotype 1a): 0.8 nM
IC50 (HCV replicon genotype 1b): 1.9 nM

CNC(=O)c1c(-c2ccc(F)cc2)oc2cc(N(C)S(C)(=O)=O)c(-c3cc(-c4nc5c(o4)CCCC5(F)F)ccn3)cc12 [Compound 95]
IC50 (HCV replicon genotype 1a): 0.9 nM
IC50 (HCV replicon genotype 1b): 1.1 nM

CNC(=O)c1c(-c2ccc(F)cc2)oc2cc(N(C)S(C)(=O)=O)c(-c3cc(-c4cc5ccccc5[nH]4)ncn3)cc12 [Compound 108, 5-(6-(1H-indol-2-yl)pyrimidin-4-yl)-2-(4-fluorophenyl)-N-methyl-6-(N-methylmethylsulfonamido)benzofuran-3-carboxamide]
IC50 (HCV replicon genotype 1a): 0.7 nM
IC50 (HCV replicon genotype 1b): 1.2 nM

CNC(=O)c1c(-c2ccc(F)cc2)oc2cc(N(C)S(C)(=O)=O)c(-c3ccnc(-c4cc5ccccc5[nH]4)c3)cc12 [Compound 109]
IC50 (HCV replicon genotype 1a): 0.4 nM
IC50 (HCV replicon genotype 1b): 1 nM

CNC(=O)c1c(-c2ccc(F)cc2)oc2cc(N(C)S(C)(=O)=O)c(-c3cncc(-c4cc5ccccc5[nH]4)n3)cc12 [Compound 113]
IC50 (HCV replicon genotype 1a): 0.3 nM
IC50 (HCV replicon genotype 1b): 0.8 nM

CNC(=O)c1c(-c2ccc(F)cc2)oc2cc(N(C)S(C)(=O)=O)c(-c3cc(-c4cc5c(F)cccc5[nH]4)ncn3)cc12 [Compound 119]
IC50 (HCV replicon genotype 1a): 0.7 nM
IC50 (HCV replicon genotype 1b): 1.5 nM

CNC(=O)c1c(-c2ccc(F)cc2)oc2cc(N(C)S(C)(=O)=O)c(-c3cncc(-c4cc5c(F)cccc5[nH]4)n3)cc12 [Compound 121]
IC50 (HCV replicon genotype 1a): 0.8 nM
IC50 (HCV replicon genotype 1b): 1.2 nM

CNC(=O)c1c(-c2ccc(F)cc2)oc2cc(N(C)S(C)(=O)=O)c(-c3cncc(-c4cc5cccc(F)c5[nH]4)n3)cc12 [Compound 139]
IC50 (HCV replicon genotype 1a): 0.8 nM
IC50 (HCV replicon genotype 1b): 0.8 nM

CNC(=O)c1c(-c2ccc(F)cc2)oc2cc(N(C)S(C)(=O)=O)c(-c3cc(-c4cc5ccccc5[nH]4)nc(OC)n3)cc12 [Compound 150, 5-(6-(1H-indol-2-yl)-2-methoxypyrimidin-4-yl)-2-(4-fluorophenyl)-N-methyl-6-(N-methylmethylsulfonamido)benzofuran-3-carboxamide]
IC50 (HCV replicon genotype 1a): 3.2 nM
IC50 (HCV replicon genotype 1b): 5.1 nM

CNC(=O)c1c(-c2ccc(F)cc2)oc2cc(N(C)S(C)(=O)=O)c(-c3cc(-c4cc5ccccc5[nH]4)nc(C#N)n3)cc12 [Compound 151]
IC50 (HCV replicon genotype 1a): 7.7 nM
IC50 (HCV replicon genotype 1b): 3.7 nM

CNC(=O)c1c(-c2ccc(F)cc2)oc2cc(N3CCCC3=O)c(-c3cncc(-c4nc5c(s4)CCCC5(F)F)c3)cc12 [Compound 155, 5-(5-(4,4-difluoro-4,5,6,7-tetrahydrobenzo[d]thiazol-2-yl)pyridin-3-yl)-2-(4-fluorophenyl)-N-methyl-6-(2-oxopyrrolidin-1-yl)benzofuran-3-carboxamide]
IC50 (HCV replicon genotype 1a): 2.9 nM
IC50 (HCV replicon genotype 1b): 1 nM

CNC(=O)c1c(-c2ccc(F)cc2)oc2cc(N(C)S(C)(=O)=O)c(-c3ccc(-c4nc5c(F)cccc5o4)s3)cc12 [Compound 157]
IC50 (HCV replicon genotype 1a): 0.9 nM
IC50 (HCV replicon genotype 1b): 1.5 nM

CNC(=O)c1c(-c2ccc(F)cc2)oc2cc(N(C)S(C)(=O)=O)c(-c3c[nH]c(=O)c(-c4nc5c(F)cccc5o4)c3)cc12 [Compound 159]
IC50 (HCV replicon genotype 1a): 0.8 nM
IC50 (HCV replicon genotype 1b): 1.3 nM

CNC(=O)c1c(-c2ccc(F)cc2)oc2cc(N(CC(F)F)S(C)(=O)=O)c(-c3cc(-c4nc5ncccc5o4)ccn3)cc12 [Compound 170]
IC50 (HCV replicon genotype 1a): 27 nM
IC50 (HCV replicon genotype 1b): 5.1 nM

CNC(=O)c1c(-c2ccc(F)cc2)oc2cc(N(C)S(C)(=O)=O)c(-c3cncc(-c4cc5ccncc5s4)c3)cc12 [Compound 179]
IC50 (HCV replicon genotype 1a): 8.2 nM
IC50 (HCV replicon genotype 1b): 5.1 nM

CNC(=O)c1c(-c2ccc(F)cc2)oc2cc(N(C)S(C)(=O)=O)c(-c3cncc(-c4ccc5cc(C(F)(F)F)cnc5n4)c3)cc12 [Compound 180]
IC50 (HCV replicon genotype 1a): 5.4 nM
IC50 (HCV replicon genotype 1b): 2.3 nM

CNC(=O)c1c(-c2ccc(F)cc2)oc2cc(N(C)S(C)(=O)=O)c(-c3cncc(-c4nc5c(s4)C4CCC5C4)c3)cc12 (centres unmarked) [Compound 182]
IC50 (HCV replicon genotype 1a): 4.4 nM
IC50 (HCV replicon genotype 1b): 4.3 nM

CNC(=O)c1c(-c2ccc(F)cc2)oc2cc(N(C)S(C)(=O)=O)c(-c3cc(-c4cc5ccccc5[nH]4)c(OC)cn3)cc12 [Compound 202]
IC50 (HCV replicon genotype 1a): 8.4 nM
IC50 (HCV replicon genotype 1b): 7.6 nM

CNC(=O)c1c(-c2ccc(F)cc2)oc2cc(N(C)S(C)(=O)=O)c(-c3ccc(OC)c(-c4cc5cccc(C#N)c5[nH]4)n3)cc12 [Compound 208]
IC50 (HCV replicon genotype 1a): 27 nM
IC50 (HCV replicon genotype 1b): 7.2 nM

CNC(=O)c1c(-c2ccc(F)cc2)oc2cc(N(C)S(C)(=O)=O)c(-c3cc(-c4cc5ccccc5[nH]4)c(OC)nn3)cc12 [Compound 209]
IC50 (HCV replicon genotype 1a): 8.9 nM
IC50 (HCV replicon genotype 1b): 4.7 nM

CNC(=O)c1c(-c2ccc(F)cc2)nn2cc(N(C)S(C)(=O)=O)c(-c3nccc(-c4cc5ccccc5[nH]4)n3)cc12 [Compound 210]
IC50 (HCV replicon genotype 1a): 11 nM
IC50 (HCV replicon genotype 1b): 4.7 nM

CNC(=O)c1c(-c2ccc(F)cc2)oc2cc(N(C)S(C)(=O)=O)c(-c3ccc(OC)c(-c4cc5ncccc5[nH]4)n3)cc12 [Compound 211]
IC50 (HCV replicon genotype 1a): 8.8 nM
IC50 (HCV replicon genotype 1b): 2.5 nM

CNC(=O)c1c(-c2ccc(F)cc2)oc2cc(N(C)S(C)(=O)=O)c(-c3ncc(OC)c(-c4cc5c(C#N)cccc5[nH]4)n3)cc12 [Compound 214]
IC50 (HCV replicon genotype 1a): 33 nM
IC50 (HCV replicon genotype 1b): 9.9 nM

CNC(=O)c1c(-c2ccc(F)cc2)oc2cc(N(C)S(C)(=O)=O)c(-c3cc(-c4cc5c(F)cccc5[nH]4)c(OC)nn3)cc12 [Compound 218]
IC50 (HCV replicon genotype 1a): 4.2 nM
IC50 (HCV replicon genotype 1b): 9.2 nM

CNC(=O)c1c(-c2ccc(F)cc2)oc2cc(N(C)S(C)(=O)=O)c(-c3cc(-c4cc5c(F)cccc5[nH]4)nnc3OC)cc12 [Compound 223]
IC50 (HCV replicon genotype 1a): 2.8 nM
IC50 (HCV replicon genotype 1b): 4.5 nM

CNC(=O)c1c(-c2ccc(F)cc2)oc2cc(N(C)S(C)(=O)=O)c(-c3nc(-c4cc5ccccc5[nH]4)c(OC)cc3OC)cc12 [Compound 224]
IC50 (HCV replicon genotype 1a): 99 nM
IC50 (HCV replicon genotype 1b): 31 nM

CNC(=O)c1c(-c2ccc(F)cc2)oc2cc(N(C)S(C)(=O)=O)c(-c3cnc(OC)c(-c4cc5c(C#N)cccc5[nH]4)n3)cc12 [Compound 225]
IC50 (HCV replicon genotype 1a): 4.7 nM
IC50 (HCV replicon genotype 1b): 7 nM

CNC(=O)c1c(-c2ccc(F)cc2)oc2cc(N(C)S(C)(=O)=O)c(-c3cnc(OC)c(-c4cc5cccc(F)c5[nH]4)n3)cc12 [Compound 226]
IC50 (HCV replicon genotype 1a): 3.4 nM
IC50 (HCV replicon genotype 1b): 7.2 nM

CNC(=O)c1c(-c2ccc(F)cc2)oc2cc(N(C)S(C)(=O)=O)c(-c3cc(-c4cc5c(C#N)cccc5[nH]4)cnn3)cc12 [Compound 230]
IC50 (HCV replicon genotype 1a): 1.4 nM
IC50 (HCV replicon genotype 1b): 1.9 nM

CNC(=O)c1c(-c2ccc(F)cc2)oc2cc(N(C)S(C)(=O)=O)c(-c3ccc(O)c(-c4cc5c(C#N)nccc5[nH]4)n3)cc12 [Compound 231]
IC50 (HCV replicon genotype 1a): 339 nM
IC50 (HCV replicon genotype 1b): 47 nM

CNC(=O)c1c(-c2ccc(F)cc2)oc2cc(N(C)S(C)(=O)=O)c(-c3ccnc(-c4cc5c(C#N)cccc5[nH]4)c3)cc12 [Compound 233]
IC50 (HCV replicon genotype 1a): 0.1 nM
IC50 (HCV replicon genotype 1b): 0.4 nM

CNC(=O)c1c(-c2ccc(F)cc2)oc2cc(N(CCCF)S(C)(=O)=O)c(-c3cncc(-c4cc5ccccc5[nH]4)c3)cc12 [Compound 244]
IC50 (HCV replicon genotype 1a): 2.7 nM
IC50 (HCV replicon genotype 1b): 4.7 nM

CNC(=O)c1c(-c2ccc(F)cc2)oc2cc(N(C)S(C)(=O)=O)c(-c3ccc(OC)c(-c4cc5ccccn5n4)n3)cc12 [Compound 254, 2-(4-fluorophenyl)-5-(5-methoxy-6-(pyrazolo[1,5-a]pyridin-2-yl)pyridin-2-yl)-N-methyl-6-(N-methylmethylsulfonamido)benzofuran-3-carboxamide]
IC50 (HCV replicon genotype 1a): 214 nM
IC50 (HCV replicon genotype 1b): 26 nM

CNC(=O)c1c(-c2ccc(F)cc2)oc2cc(N(C)S(C)(=O)=O)c(-c3ccc(O)c(-c4cc5ccccn5n4)n3)cc12 [Compound 255]
IC50 (HCV replicon genotype 1a): 1450 nM
IC50 (HCV replicon genotype 1b): 104 nM
